# Assay results from US10925867B2, “Immunotherapeutic dosing regimens comprising pomalidomide and an anti-CS1 antibody for treating cancer” (Bristol-Myers Squibb Company, priority 2015, dated 2021).
# Where two headings read alike, the source gives them in different places. Marks after values point to notes of the source that are not given here.
# Columns and labels:
# [1] = system: multiple myeloma; settings: cited from earlier work
# [2] = system: OPM2 xenograft; experiment: Efficacy dose titration of pomalidomide in OPM2 xenograft; format: in vivo; settings: for LCK (Log cell kill) / Median Days to Target Size / TGI (Tumor growth inhibition) / Weight Change % / CR (Complete regression) / PR (Partial regression): d14, 21; for CR (Complete regression) / PR (Partial regression): mice of 8; for effect on tumor growth (in words): pomalidomide 0.5, 5 and 50 mg/kg orally
# Experimental: FIG. 1. Antitumor Activity of pomalidomide treatment on OPM2 Multiple Myeloma Xenograft. Pomalidomide was administered at either 0.5 mg/kg, 5 mg/kg, or 50 mg/kg. […] Group one was left untreated (control, circles), group two treated with pomalidomide (50 mg/kg, triangles), group three treated with pomalidomide (5 mg/kg, squares), group four treated with pomalidomide (0.5 mg/kg, diamonds). All treatment sets were dosed daily for 5 days orally starting on d14 and then again for 5 days on d21. The data are presented as means+/−standard deviation. From this experiment the suboptimal 5 mg/kg dose was chosen as the dose to use in combination studies with elotuzumab and/or dexamethasone. […]
# To assess the effect of pomalidomide treatment on the growth of the OPM2 xenograft, scid mice with established tumors were treated orally with pomalidomide at doses of 0.5 mg/kg, 5 mg/kg and 50 mg/kg. […] From this experiment the suboptimal 5 mg/kg dose was chosen as the dose to use in the combination studies (Study #1, OPM2-15 and Study #2, OPM2-16).
# [3] = target: T1, SLAMF7 (Homo sapiens, UniProt Q9NQ25); experiment: Saturation of SLAMF7 on bone marrow plasma cells, Phase 2 study of elotuzumab and lenalidomide/dexamethasone; format: in vivo; settings: doses ≥10 mg/kg
# T1 construct: endogenous in cells; host or cells: bone marrow plasma (myeloma) cells from multiple myeloma subjects treated with elotuzumab plus lenalidomide/dexamethasone
# Experimental: FIG. 7. Saturation of SLAMF7 Target on Bone Marrow Myeloma Samples from Subjects Treated in a Phase 2 Study of Elotuzumab and Lenalidomide/Dexamethasone (HuLuc63).
# Following elotuzumab dosing of 10 and 20 mg/kg in combination with lenalidomide, the observed steady-state Cmin values consistently remained above 70 μg/mL, the minimum efficacious trough concentrations (Lonial et. al., J Clin Oncol. 30(16):1953-1959. (2012)). […] Given the lack of difference in efficacy, safety, PK and SLAMF7 saturation between 10 and 20 mg/kg, the 10 mg/kg weekly for the first 2 cycles followed by 20 mg/kg monthly thereafter, was selected to improve patient convenience and compliance.
# [4] = Infusion reactions in Study CA204004; format: in vivo, human
# Source text: (§1) Elotuzumab can cause infusion reactions. Infusion reactions were reported in approximately 10% of patients treated with elotuzumab, lenalidomide and dexamethasone in Study CA204004 and in 7% of patients treated with elotuzumab, bortezomib and dexamethasone in Study CA204009. All reports of infusion reaction were ≤Grade 3. Grade 3 infusion reactions occurred in 1% of patients in Study CA204004 and in no patients in Study CA204009. The most common symptoms of an infusion reaction included fever, chills and hypertension. In Study CA204004, 5% of patients required interruption of the administration of elotuzumab due to infusion reaction for a median of 25 minutes and 1% of patients discontinued due to infusion reactions. In Study CA204009, 20% of patients required interruption of the administration of elotuzumab for a median of 40 minutes and none discontinued due to infusion reactions. Of the patients who experienced an infusion reaction, 70% (23/33) in Study CA204004 and 80% (4/5) in Study CA204009 had them during the first dose.
# [5] = Study CA204112, elotuzumab administration in <1 hour (5 ml/min); format: in vivo, human; settings: infusion rate escalated to 5 ml/min by the third dose; with lenalidomide/dexamethasone
# Experimental: Preliminary data are available for an ongoing study CA204112 with elotuzumab administration in <1 hour (5 ml/min) combined with lenalidomide/dexamethasone in newly diagnosed and relapsed/refractory myeloma. In this trial, the infusion rate was escalated to 5 ml/min by the third elotuzumab dose.
# [6] = Infusion reactions in Study CA204009; format: in vivo, human
# Source text: as §1
# (§2) The maximum infusion rate of 2 ml/min was initially explored in the phase 1 and 2 elotuzumab clinical trials. However, the phase 2 portion of the CA204003 (1703) and the CA204009 studies allowed an infusion rate escalation in subjects without infusion reactions for a minimum of 4 cycles of study therapy at 2 ml/min. The infusion rates are allowed to increase by 1 ml/min per cycle, up to 5 ml/min.
# (§3) Preliminary safety data of the 5 ml/minute infusion rate are based on an analysis of subjects who escalated the elotuzumab infusion to 5 ml/minute in the CA204003 (1703) and CA204009 studies. In the phase 2 portion of the CA204003 (1703) study, 33% of all study infusions and 42.5% of subjects received infusions at 5 ml/min. In subjects who were administered infusions ≤2 ml/min, there were 7 grade 1-2 infusion reactions, and 1 grade 3-4 infusion reaction. […] In the randomized phase 2 CA204009 study, 27% of all subjects and 9% of all infusions on the investigational arm received infusions at 5 ml/min.
# [7] = Infusion reactions by infusion rate, phase 2 portion of CA204003 (1703); format: in vivo, human
# Experimental: as §2, §3
# [8] = system: human myeloma xenografts; settings: intraperitoneally (IP), dose-dependent; cited from earlier work
# [9] = system: relapsed or refractory multiple myeloma; settings: with lenalidomide and low-dose dexamethasone; 10 mg/kg dose; cited from earlier work
# [10] = 10 and 20 mg/kg in combination with lenalidomide; cited from earlier work
# [11] = pomalidomide 0.5 mg/kg PO QD × 5
# [12] = pomalidomide 50 mg/kg PO QD × 5
# T1 sequence (Q9NQ25 23-335): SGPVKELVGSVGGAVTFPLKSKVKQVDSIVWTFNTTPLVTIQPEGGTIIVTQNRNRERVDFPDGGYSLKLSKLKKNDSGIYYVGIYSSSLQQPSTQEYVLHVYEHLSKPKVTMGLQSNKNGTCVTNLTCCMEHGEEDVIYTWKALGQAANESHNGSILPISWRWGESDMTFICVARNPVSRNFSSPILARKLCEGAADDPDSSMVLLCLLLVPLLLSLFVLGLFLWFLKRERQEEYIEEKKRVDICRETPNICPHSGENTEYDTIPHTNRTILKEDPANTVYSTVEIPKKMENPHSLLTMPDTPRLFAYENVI
molecule,measurement,setting,value
"Nc1cccc2c1C(=O)N(C1CCC(=O)NC1=O)C2=O (racemic) [Pomalidomide, (RS)-4-amino-2-(2,6-dioxo-piperidin-3-yl)-isoindole-1,3-dione]",ORR (≥PR),[1]; 2 mg/day,29%
same,median PFS,[1]; 2 mg/day,5.5 months
same,median duration of response,[1]; 2 mg/day,14.1 months
same,ORR (≥PR),[1]; 4 mg/day,35%
same,median PFS,[1]; 4 mg/day,6.9 months
same,median duration of response,[1]; 4 mg/day,14.5 months
same,LCK (Log cell kill),[2]; [11],0.19^g
same,Median Days to Target Size,[2]; [11],25 days
same,TGI (Tumor growth inhibition),[2]; [11],45%
same,Weight Change %,[2]; [11],9.3%
same,CR (Complete regression),[2]; [11],0/8
same,PR (Partial regression),[2]; [11],0/8
same,LCK (Log cell kill),[2]; pomalidomide 5 mg/kg PO QD × 5,0.59^f
same,Median Days to Target Size,[2]; pomalidomide 5 mg/kg PO QD × 5,29 days
same,TGI (Tumor growth inhibition),[2]; pomalidomide 5 mg/kg PO QD × 5,63.1%
same,Weight Change %,[2]; pomalidomide 5 mg/kg PO QD × 5,3.2%
same,CR (Complete regression),[2]; pomalidomide 5 mg/kg PO QD × 5,0/8
same,PR (Partial regression),[2]; pomalidomide 5 mg/kg PO QD × 5,0/8
same,LCK (Log cell kill),[2]; [12],1.0^e
same,Median Days to Target Size,[2]; [12],33 days
same,TGI (Tumor growth inhibition),[2]; [12],87.1%
same,Weight Change %,[2]; [12],4.7%
same,CR (Complete regression),[2]; [12],0/8
same,PR (Partial regression),[2]; [12],1/8
same,effect on tumor growth (in words),[2],suppressed tumor growth in a dose-dependent fashion
same,effect on tumor growth (in words),[2]; listed as pomalidomide,inhibited tumor growth in a dose-dependent fashion
"Elotuzumab: humanized monoclonal IgG1 antibody directed against CS-1; VL SEQ ID NO:1, VH SEQ ID NO:2",saturation of SLAMF7 on bone marrow plasma cells,[3],complete saturation
same,median duration of interruption,[4],25 min
same,patients discontinued due to infusion reactions,[4],1%
same,patients requiring interruption of administration due to infusion reaction,[4],5%
same,patients with Grade 3 infusion reactions,[4],1%
same,patients with infusion reaction who had it during the first dose,[4],70%
same,patients with infusion reactions,[4]; with lenalidomide and dexamethasone,approximately 10%
same,frequency of infusion reactions,[5],no increased frequency of infusion reactions
same,median duration of interruption,[6],40 min
same,patients discontinued due to infusion reactions,[6],none
same,patients requiring interruption of administration,[6],20%
same,patients with Grade 3 infusion reactions,[6],no patients
same,patients with infusion reaction who had it during the first dose,[6],80%
same,infusion reactions,[6]; subjects reaching infusion rates >2 ml/min,no infusion reactions of any grade
same,patients with infusion reactions,[6]; with bortezomib and dexamethasone,7%
same,grade 3-4 infusion reactions,[7]; infusion rates >2 ml/min,no grade 3-4 infusion reactions
same,number of grade 1-2 infusion reactions,[7]; infusion rates >2 ml/min,1
same,number of grade 1-2 infusion reactions,[7]; infusions ≤2 ml/min,7
same,number of grade 3-4 infusion reactions,[7]; infusions ≤2 ml/min,1
same,tumor growth,[8],inhibits tumor growth of human myeloma xenografts
same,PFS,[9],33 month
same,response rate,[9],92%
same,steady-state Cmin,[10],above 70 μg/mL
